Experiment: xn = mol fraction of the nth substance listed
Conditions: 101 kPa

Structure (SMILES): CCCCCCCCCCCC[N+](CC)(CC)CC.O=S(=O)([N-]S(=O)(=O)C(F)(F)F)C(F)(F)F + O
- viscosity (302.95 K, x2 = 0.1238): 97.2 mPa·s
- viscosity (308.05 K, x2 = 0.1238): 76.6 mPa·s
- viscosity (313.05 K, x2 = 0.1238): 60.7 mPa·s
- viscosity (318.05 K, x2 = 0.1238): 48.8 mPa·s
- viscosity (322.95 K, x2 = 0.1238): 39.19 mPa·s

Structure (SMILES): CCCCCCCC[N+](CC)(CC)CC.O=S(=O)([N-]S(=O)(=O)C(F)(F)F)C(F)(F)F + O
- viscosity (293.25 K, x2 = 0.1442): 107.8 mPa·s
- viscosity (298.05 K, x2 = 0.1442): 88.1 mPa·s
- viscosity (303.05 K, x2 = 0.1442): 69.8 mPa·s
- viscosity (313.05 K, x2 = 0.1442): 45.09 mPa·s

Structure (SMILES): CCCCCC[N+](CC)(CC)CC.O=S(=O)([N-]S(=O)(=O)C(F)(F)F)C(F)(F)F + O
- viscosity (298.05 K, x2 = 0.1618): 66.7 mPa·s
- viscosity (303.05 K, x2 = 0.1618): 54 mPa·s
- viscosity (313.05 K, x2 = 0.1618): 36.49 mPa·s
- viscosity (318.05 K, x2 = 0.1618): 30.73 mPa·s
- viscosity (322.95 K, x2 = 0.1618): 25.98 mPa·s
